Experimental data from article PMC3815585 (European journal of medicinal chemistry, 2008).

What was measured:
[1] = tested on: T.b.r. strain STIB900; experiment: STIB900 acute mouse model for African trypanosomiasis; format: in vivo
[2] = tested on: Poly(d(A-T))2; experiment: DNA thermal melting; format: binding; settings: from ΔTm values; for Reduction in DNA affinity: compared within the bis-guanidine series
[3] = tested on: Trypanosoma brucei rhodesiense (T.b.r.) strain STIB900; format: cell-based; settings: RHODESIENSE|STIB900, read-out: T.b.r. IC50

N=C(N)Nc1ccc(-c2ccc(-c3ccc(NC(=N)N)cc3)cc2)cc1 [6a, 4,4″-Bis-guanidino-[1,1′;4′,1″]terphenyl] was tested, and the “Cures (mice that survived 60 days and are parasite-free)” value ([1]; 20 mg/kg ip for 4 days) was “none gave cures” and the “Reduction of DNA affinity from that of the corresponding diamidine V” value [2] was “about 20%”.
For N=C(N)Nc1ccc(-c2ccc(-c3ccc(NC(=N)N)cn3)cc2)nc1 [6b, 1,4-Bis-[5′-guanidinopyridin-2′-yl]phenylene], the “Reduction in DNA affinity” value [2] was “approximately one third”.
CCOC(=O)/N=C(\N)Nc1ccc(-c2ccc(-c3ccc(N/C(N)=N/C(=O)OCC)cc3)cc2)cc1 [8a, 4,4″-Bis(N′-ethoxycarbonyl)-guanidino-[1,1′;4′,1″]terphenyl] was tested, and the “Cures (mice that survived 60 days and are parasite-free)” value ([1]; 25 mg/kg po for 4 days) was “no cures were achieved”.
In the case of CCOC(=O)/N=C(\NC)Nc1ccc(-c2ccc(-c3ccc(N/C(=N/C(=O)OCC)NC)cc3)cc2)cc1 [8c, 4,4″-Bis(N′-ethoxycarbonyl-N″-methyl)-guanidino-[1,1′;4′,1″]terphenyl], the “Cures (mice that survived 60 days and are parasite-free)” value ([1]; 25 mg/kg po for 4 days) is reported as “no cures were achieved”.
With CNC(=N)Nc1ccc(-c2ccc(-c3ccc(NC(=N)NC)cc3)cc2)cc1 [9c, 4,4″-Bis(N′-methyl)-guanidino-[1,1′;4′,1″]terphenyl] the “Cures (mice that survived 60 days and are parasite-free)” value ([1]; 20 mg/kg ip for 4 days) was “none gave cures”.
CNC(=N)Nc1ccc(-c2ccc(-c3ccc(NC(=N)NC)cn3)cc2)nc1 [9d, 1,4-Bis-[5′-(N′-methylguanidino)-pyridin-2′-yl]-phenylene] was tested, and the “Acute toxicity in treated mice” value ([1]; 20 mg/kg ip) was “showed acute toxicity” and the “Cures (mice that survived 60 days and are parasite-free)” value ([1]; 20 mg/kg ip for 4 days) was “none gave cures”.
In the case of CC(C)NC(=N)Nc1ccc(-c2ccc(-c3ccc(NC(=N)NC(C)C)cc3)cc2)cc1 [9e, 4,4″-Bis(N′-isopropyl)-guanidino-[1,1′;4′,1″]terphenyl], the “Reduction in DNA affinity” value [2] is reported as “approximately one third”.
N=C(N)c1ccc(-c2ccc(-c3ccc(C(=N)N)cc3)cc2)cc1 [V] was tested, and the IC50 [3] was 5 nM.
